Our source for the Papp, IC50 and Activity values is ChEMBL document CHEMBL1177734, “Novel tacrine-8-hydroxyquinoline hybrids as multifunctional agents for the treatment of Alzheimer's disease, with neuroprotective, cholinergic, antioxidant, and copper-complexing properties” (J Med Chem, 2010).

The nature of data set [1]: Permeability by PAMPA method. Type of data set: ADME. Conditions: read-out: permeability. A general note: In PAMPA a lipid-coated filter parts donor from acceptor wells.
Data set [2] has as its target Acetylcholinesterase (Homo sapiens, UniProt P22303).
Description: Inhibition of human erythrocyte AChE by Ellman's reaction
For data set [3], the target named is T1, Acetylcholinesterase (Bos taurus, UniProt P23795).
T1 sequence (P23795 whole entry): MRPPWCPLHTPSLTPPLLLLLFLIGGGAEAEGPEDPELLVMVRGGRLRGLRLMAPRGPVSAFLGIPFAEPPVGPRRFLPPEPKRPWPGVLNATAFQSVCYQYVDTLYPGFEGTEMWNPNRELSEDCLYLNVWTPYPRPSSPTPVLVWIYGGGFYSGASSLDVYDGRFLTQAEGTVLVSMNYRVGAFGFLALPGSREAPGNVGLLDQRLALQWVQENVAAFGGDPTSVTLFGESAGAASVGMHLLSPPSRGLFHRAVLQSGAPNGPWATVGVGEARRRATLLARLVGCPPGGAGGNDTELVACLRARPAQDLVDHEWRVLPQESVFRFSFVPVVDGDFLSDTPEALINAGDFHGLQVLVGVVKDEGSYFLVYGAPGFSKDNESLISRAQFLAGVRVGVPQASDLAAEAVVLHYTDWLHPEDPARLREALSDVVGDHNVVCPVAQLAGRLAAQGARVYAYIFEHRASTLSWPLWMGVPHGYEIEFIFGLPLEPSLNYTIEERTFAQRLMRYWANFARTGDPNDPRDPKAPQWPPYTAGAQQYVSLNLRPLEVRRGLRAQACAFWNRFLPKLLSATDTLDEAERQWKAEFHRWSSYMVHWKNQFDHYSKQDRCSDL
Description: Inhibition of bovine erythrocyte AChE by Ellman's reaction

Data set [4] addresses Cholinesterase (Homo sapiens, UniProt P06276).
Description: Inhibition of human serum BChE by Ellman's reaction
In data set [5] the target is Cholinesterase (Equus caballus, UniProt P81908).
Sequence of Cholinesterase (Equus caballus, UniProt P81908) (P81908 whole entry): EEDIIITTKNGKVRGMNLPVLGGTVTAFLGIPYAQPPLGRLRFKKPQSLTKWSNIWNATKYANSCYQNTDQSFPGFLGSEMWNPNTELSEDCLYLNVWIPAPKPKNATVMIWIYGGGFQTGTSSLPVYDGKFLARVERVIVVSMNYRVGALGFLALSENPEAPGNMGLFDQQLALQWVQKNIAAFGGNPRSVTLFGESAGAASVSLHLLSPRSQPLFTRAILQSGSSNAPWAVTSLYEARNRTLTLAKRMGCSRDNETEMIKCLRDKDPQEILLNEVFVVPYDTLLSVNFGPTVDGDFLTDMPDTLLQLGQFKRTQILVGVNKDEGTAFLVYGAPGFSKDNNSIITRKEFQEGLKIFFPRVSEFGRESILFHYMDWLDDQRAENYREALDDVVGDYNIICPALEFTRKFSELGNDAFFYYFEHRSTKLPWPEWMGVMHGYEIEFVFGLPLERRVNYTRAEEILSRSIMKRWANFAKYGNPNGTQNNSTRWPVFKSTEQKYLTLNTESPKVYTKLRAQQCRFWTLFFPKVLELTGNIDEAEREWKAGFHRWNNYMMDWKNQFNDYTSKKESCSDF
Description: Inhibition of horse serum BChE by Ellman's reaction
Data set [6] concerns SH-SY5Y. The experiment in a line: Neuroprotective activity against rotenone-induced cell death in human SH-SY5Y cells assessed as lactate dehydrogenase release at 3 uM after 24 hrs. Type of data set: functional.
Data set [7] is described as follows: Metal chelating activity assessed as formation of copper complex in Tris buffer at pH 7.4 at 22.5 uM after 1 min by UV-vis spectrometry. Type of data set: functional.
A short description of data set [8]: Metal chelating activity assessed as formation of iron complex in Tris buffer at pH 7.4 at 22.5 uM after 30 mins by UV-vis spectrometry. Type of data set: functional.
Data set [9] in a line: Metal chelating activity assessed as formation of copper complex in Tris buffer at pH 7.4 at 22.5 uM by UV-vis spectrometry. Type of data set: functional.
Data set [10] deals with SH-SY5Y. The data set is described as follows: Cytotoxicity against human SH-SY5Y cells assessed as lactate dehydrogenase release at 3 uM after 24 hrs. Type of data set: cell-based.

pIC50: −log10 of the molar value. Active and inactive are the calls of the source. No cut-off for these calls is given here.

Sequence of Cholinesterase (Homo sapiens, UniProt P06276) (P06276 whole entry): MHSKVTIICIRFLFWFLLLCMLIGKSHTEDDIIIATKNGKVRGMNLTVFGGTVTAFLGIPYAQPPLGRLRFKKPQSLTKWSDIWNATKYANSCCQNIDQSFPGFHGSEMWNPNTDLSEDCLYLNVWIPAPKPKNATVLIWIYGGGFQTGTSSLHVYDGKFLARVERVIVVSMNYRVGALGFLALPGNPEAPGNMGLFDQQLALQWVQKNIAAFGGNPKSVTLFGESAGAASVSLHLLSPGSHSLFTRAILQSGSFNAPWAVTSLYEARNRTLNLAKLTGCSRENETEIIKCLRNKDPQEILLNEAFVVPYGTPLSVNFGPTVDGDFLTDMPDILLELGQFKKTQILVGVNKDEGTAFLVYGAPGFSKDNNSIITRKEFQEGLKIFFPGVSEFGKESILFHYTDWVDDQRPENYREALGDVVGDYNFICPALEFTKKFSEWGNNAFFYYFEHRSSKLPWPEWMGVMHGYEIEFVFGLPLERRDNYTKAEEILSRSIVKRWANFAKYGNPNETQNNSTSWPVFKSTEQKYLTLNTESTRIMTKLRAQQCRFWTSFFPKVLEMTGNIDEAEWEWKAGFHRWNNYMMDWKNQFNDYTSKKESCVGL
Sequence of Acetylcholinesterase (Homo sapiens, UniProt P22303) (P22303 whole entry): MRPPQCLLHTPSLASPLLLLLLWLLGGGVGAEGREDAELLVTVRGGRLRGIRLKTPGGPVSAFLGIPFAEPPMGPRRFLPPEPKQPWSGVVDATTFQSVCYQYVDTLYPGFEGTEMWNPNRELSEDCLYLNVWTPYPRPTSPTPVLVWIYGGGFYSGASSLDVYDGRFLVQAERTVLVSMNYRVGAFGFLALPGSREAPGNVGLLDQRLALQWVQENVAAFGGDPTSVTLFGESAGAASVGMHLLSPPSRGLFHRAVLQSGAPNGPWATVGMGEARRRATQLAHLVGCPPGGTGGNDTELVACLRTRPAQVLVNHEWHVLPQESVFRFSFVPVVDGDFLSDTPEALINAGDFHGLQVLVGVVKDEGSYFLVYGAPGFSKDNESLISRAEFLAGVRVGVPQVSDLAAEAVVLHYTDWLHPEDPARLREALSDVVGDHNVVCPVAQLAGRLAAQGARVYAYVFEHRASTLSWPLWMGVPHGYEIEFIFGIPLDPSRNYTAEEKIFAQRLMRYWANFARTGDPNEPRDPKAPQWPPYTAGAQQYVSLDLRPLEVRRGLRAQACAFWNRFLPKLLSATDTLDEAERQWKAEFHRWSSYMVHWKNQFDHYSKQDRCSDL

Usually pIC50 stands for −log10 of the IC50, conventionally taken in molar units. Read a high pIC50 as a low IC50. As for `Cc1ccc2ccc(CNCCCCCCCCNc3c4c(nc5ccccc35)CCCC4)c(O)c2n1.Cl.Cl`, the Papp in data set [1] stood at 14.1 ×10⁻⁶ cm/s. The pIC50 is 9.30 in data set [2], 7.12 in [3], 8.19 in data set [4] and 8.70 in data set [5].

In data set [3], `Oc1c(CNCCCCCCCCCCNc2c3c(nc4ccccc24)CCCC3)cc(Cl)c2cccnc12` had a negative-log IC50 (pIC50) of 7.00.

`Oc1c(CNCCCCCCNc2c3c(nc4ccccc24)CCCC3)ccc2cccnc12` gave a pIC50 in data set [3] of 6.70.

Molecule `Oc1c(CNCCCCCCCCCCCCNc2c3c(nc4ccccc24)CCCC3)ccc2cccnc12` had a pIC50 in [3] of 6.60.

For the molecule `Cc1ccc2ccc(CNCCCCCCCCCCNc3c4c(nc5ccccc35)CCCC4)c(O)c2n1`, the values for the pIC50 in [3] and in data set [5] were 7.15 and 8.15, respectively.

Take `Oc1c(CNCCCCCCCCNc2c3c(nc4ccccc24)CCCC3)ccc2cccnc12`: the figures for the pIC50 in [3] and in data set [5] were 7.05 and 7.52, respectively.

Take `Cl.Cl.Cl.Oc1c(CNCCCCCCCCCNc2c3c(nc4ccccc24)CCCC3)cc(Cl)c2cccnc12`: the Papp in [1] is 10 ×10⁻⁶ cm/s. The pIC50 is 9.00 in [2], 7.07 in [3], 7.26 in [4] and 8.19 in data set [5].

In the case of `CN(CCCNCc1cc(Cl)c2cccnc2c1O)CCCNc1c2c(nc3ccccc13)CCCC2`, the values for the pIC50 in data set [3] and in data set [5] were 7.05 and 7.52, respectively.

The molecule `Cc1ccc2ccc(CNCCCCCCCCCNc3c4c(nc5ccccc35)CCCC4)c(O)c2n1` had a pIC50 in data set [3] of 7.00.

In data set [3], `Oc1c(CNCCCCCCCCNc2c3c(nc4ccccc24)CCCC3)cc(Cl)c2cccnc12` gave a pIC50 of 6.82.

As to `Oc1c(CNCCCCCCCNc2c3c(nc4ccccc24)CCCC3)ccc2cccnc12`, the figures for the pIC50 in data set [3] and in [5] were 7.60 and 6.82, respectively.

`Cc1ccc2ccc(CNCCCCCCCNc3c4c(nc5ccccc35)CCCC4)c(O)c2n1` had a pIC50 in data set [3] of 6.70.

In the case of `Cl.Cl.Oc1c(CNCCCCCCCCCNc2c3c(nc4ccccc24)CCCC3)ccc2cccnc12`, in data set [1], the Papp turned out to be 17.4 ×10⁻⁶ cm/s. Besides, the pIC50 is 8.26 in data set [2], 7.70 in data set [3], 7.70 in data set [4] and 8.30 in data set [5]. Besides, the Activity in data set [6] was 30%; in [10], “Toxic”. Moreover, the result in [7] and in data set [8] was inactive. Also, the result in data set [9] was Active.

In the case of `CN(CCCNCc1ccc2cccnc2c1O)CCCNc1c2c(nc3ccccc13)CCCC2`, the pIC50 is 7.10 in data set [3] and 7.30 in data set [5].

As for `Cc1ccc2ccc(CNCCCN(C)CCCNc3c4c(nc5ccccc35)CCCC4)c(O)c2n1`, the pIC50 in [3] is 6.70.

As to `Oc1cccc2cccnc12` [OXYQUINOLINE], the pIC50 in [2] and in data set [4] was less than 7.00 in each case.

In data set [3], `Oc1c(CNCCCCCCCCCCCCNc2c3c(nc4ccccc24)CCCC3)cc(Cl)c2cccnc12` had a pIC50 of 6.40.

In the case of `Oc1c(CNCCCCCCCCCCNc2c3c(nc4ccccc24)CCCC3)ccc2cccnc12`, the pIC50 in [3] is 7.30; in data set [5] it was 7.19.
